# From publication PMC5570892, “Indole-based perenosins as highly potent HCl transporters and potential anti-cancer agents” (Scientific Reports, 2017)
# Several values for one entry are separate records, joined by “and”; a condition that tells them apart may be missing. Equal entries are not always repeated.
# Assays:
# [1] = 1H NMR titration chloride binding studies; details: for Overall association constant β21 for the 2:1 host:guest complex: calculated by multiplying K 11 and K 21; for Association constant of Cl^− in the presence of HPF6 (1 equiv.), 1:1 (K a) / Association constant of Cl^− in the presence of HPF6 (1 equiv.), 2:1, K 11 / Association constant of Cl^− in the presence of HPF6 (1 equiv.), 2:1, K 21: protonated perenosin, TBA-Cl, DMSO-d6/0.5% H2O, 298 K; for Association constant of Cl^− in the presence of HPF6 (1 equiv.), 1:1 (K a): 1:1 binding model; for Association constant of Cl^− in the presence of HPF6 (1 equiv.), 2:1, K 11 / Association constant of Cl^− in the presence of HPF6 (1 equiv.), 2:1, K 21: 2:1 binding model; for partial protonation of the imine nitrogen: one mole equivalent of HPF6, DMSO-d6/0.5% H2O
# Experimental: Proton NMR titrations were performed in DMSO-d 6/0.5% H2O, to assess the ability of compounds 1d and 2–8 to bind chloride, added as the tetrabutylammonium (TBA) salt, in solution. […] However, in the presence of one equivalent of HPF6, strong binding to chloride was observed through downfield shifts of the pyrrole-NH, indole-NH and the protonated imine-NH^+. All three resonances were fitted globally to the 1:1 or 2:1 (sandwich) binding models using Bindfit[48].
# S8. 1H NMR Titration Binding Studies
# S8.1. Equipment and Sample Preparation
# 1H NMR titrations were performed on a Bruker Avance AVII400 FT -NMR spectrometer with either SEF 1H/D-19F or DUL D/1H-13C, 5 mm z-gradient probes, operating at a frequency of 400 MHz for 1H NMR with the probe temperature maintained at 298 K unless otherwise stated as determined using a variable temperature unit ([…]). For all NMR titrations, a constant host concentration w as maintained (~ 5.0 mM) by using the host solution to dissolve the guest to make the guest stock solution. Over the course of the titration Hamiltonian Microlitre syringes were used to add aliquots of the guest stock solution to the NMR sample of the host solution.
# The anions were added as the tetrabutylammonium (TBA) salts after being dried under high vacuum (< 1.0 mmHg) for 24 h. Stock solutions of the host ( ~ 5.0 mM) were prepared in a DMSO -d6/0.5%H2O mixture. In some titrations, protonation of the host species was achieved through the addition of 1 eq. hexafluorophosphoric acid (HPF6) to the host stock solution. The host stock solutions, with or without addition of HPF6, ( 500 μL) were transferred to an air -tight screw-cap NMR sample tube (5 mm ID) and the same host stock solution was used to prepare the standard guest titrant solution containing approximately 100 mM of the TBA-anion salts. T his ensured a constant concentration of the host (~ 5.0 mM) for the duration of the titration experiment.
# S8.2. Titration Procedure
# Over the course of the titration small aliquots (2 -100 μL) of the standard guest solution were added to the host solution ( ~ 500 μL) in the NMR tube. For ea ch titration 15 -20 data points were collected and at the end of the titration approximately 10 equivalents of the guest anion salt were present.
# Upon each addition of the standard guest solution the samples were thoroughly shaken in the NMR tube and then allowed to equilibrate for up to 2 minutes inside the NMR probe before the spectra were taken. Throughout each titration experiment all parameters of the NMR s pectrometer […]
# S8.3. Titration Data Fitting
# For each 1H NMR titration, all the proton resonances were monitored for changes in chemical shift.
# In the case of protonated host species at least one proton resonance was followed and for the neutral host species two or more proton resonances were followed, which allowed several data sets to use in determination of the association constant (Ka). Global fitting takes into account all data sets at the same time and this improves the quality of the nonlinear curve fitting. The supramolecular.org web applet10 was used to fit the collected titration data and allows the use of different binding models to fit the data in the best way. For compounds 1d and 2-8 firstly the 1:1 […]
# cooperative or additive, was used. The quality of fit is determined by the covariance of the fit (covfit), which is calculated by dividing the (co)variance of the residual (experimental data − calculated data) with the covariance of the experimental data. A covariance of fit factor (F covfit) can be obtained by dividing the covfir from the 1:1 binding model by the covfit from the 2:1 binding model. Due to the higher number of parameters from the 2:1 binding model an improvement in the covfit (i.e. F covfit)
# [2] = NMDG-Cl assay by HPTS (H^+/Cl^− symport); assay type: biochemical; details: for EC50 NMDG-Cl (by HPTS): H^+/Cl^− symport, no gramicidin or oleic acid; for EC50 (Gra) NMDG-Cl (by HPTS): in the presence of gramicidin 0.1 mol%; for EC50 (OA) NMDG-Cl (by HPTS): in the presence of oleic acid 2 mol%
# Experimental: The selectivity for Cl^−>H^+/OH^− transport of the perenosins was quantified using a modified NMDG-Cl assay. Unilamellar vesicles loaded with HPTS (1 mM) and N-methyl-D-glucamine chloride (NMDG-Cl) (100 mM), buffered to pH 7 with HEPES (10 mM) were prepared. Free base NMDG (0.5 M) was added increasing the extravesicular solution to pH 8, and the dissipation of this gradient following the addition of receptors was monitored. Dissipation of pH gradient indicates H^+/Cl^− symport (or the functionally equivalent OH^−/Cl^− exchange) mediated by perenosins. Gramicidin D (Gra) is a proton channel added to facilitate H^+ transport. The addition of oleic acid (OA), a naturally occurring fatty acid found in cell membranes, allowed the investigation of the enhancement in H^+/Cl^− symport, in the presence of oleic acid. Anion transporters can assist the fatty acid flip-flop mechanism by taking on the role of a flippase for fatty acid anions via binding to the anionic carboxylate head group, masking the charge and allowing rapid passage of the head group through the lipid bilayer. This in turn accelerates the natural proton transport mediated by fatty acids in biological membranes.
# For all cases EC50 values were obtained from dose-response experiments and subsequent Hill analysis (see Supplementary Information). Chloride selectivity was then quantified to give a selectivity factor (SG), shown in Table 2, using the ratio of the EC50 values. From the previous cationophore coupled assays, it was evident that the capability of perenosins to facilitate electrogenic chloride transport is negligible, therefore an absence in selectivity for Cl^−>H^+/OH^− was expected. […] FOA values for the overall H^+/Cl^− cotransport rate were calculated for compounds 1d and 2–6 in the presence of OA and are also shown in Table 2. […] In the presence of fatty acids, an alternative pathway that involves the diffusion of the fatty acid complex and free fatty acids could replace this step. […] This may be likely due to the competitive binding of the receptors to the carboxylate head group so inhibiting chloride binding and transport.
# S10.8. General Procedure for the HPTS Assay
# Unilamellar vesicles were prepared using previously reported literature procedures16. A lipid film of POPC (1-palmitoyl-2-oleoyl-sn-glycero-3-phosphocholine) was prepared from a chloroform solution under reduced pressure and then dried under vacuum for 4 or more hours. The lipid film was rehydrated by vortexing with an internal solution containing HPTS (1 mM). The lipid suspension was then subjected to 9 freeze-thaw cycles and left to rest at room temperature for 30 minutes. After this, the suspension was extruded 25 times through a 200 nm polycarbonate membrane resulting in unilamellar vesicles of a mean diameter of 200 nm. The un-encapsulated HPTS was removed by size exclusion chromatography using a sephadex G-25 column and an external solution eluent that does not contain HPTS. The lipid solution obtained after dialysis was diluted to a standard volume (usually 10 mL) with the external buffered solution to obtain a lipid stock of known concentration.
# In each experiment identical internal and external solutions were used with various salts (NMDG -Cl or sodium gluconate) buffered with HEPES (10 mM) to pH 7.0, and are detailed below.
# The lipid stock was diluted with the external buffer solution to a standard volume (2.5 mL), to afford a solution with a lipid concentration of 0.1 mM. The compounds were added as a DMSO solution (10 μL) and when an assisting ionophore (gramicidin) or oleic acid (a naturally occurring monosaturated fatty acid) was used this was also added as a DMSO solution (5 μL, 0.1 mol% or 2 mol% respectively (with respect to lipid)). To start the experiment, after the addition of the compounds, a base pulse (25 μL, of NMDG or TBAOH (0.5 M)) was spiked in to generate a pH gradient across the membrane. […]
Compound,Overall association constant β21 for the 2:1 host:guest complex [1],"Association constant of Cl^− in the presence of HPF6 (1 equiv.), 1:1 (K a) [1]","Association constant of Cl^− in the presence of HPF6 (1 equiv.), 2:1, K 11 [1]","Association constant of Cl^− in the presence of HPF6 (1 equiv.), 2:1, K 21 [1]",EC50 NMDG-Cl (by HPTS) [2],EC50 (Gra) NMDG-Cl (by HPTS) [2],EC50 (OA) NMDG-Cl (by HPTS) [2],partial protonation of the imine nitrogen [1]
CCCCCc1cc(/N=C/c2[nH]c(C)cc2C)c2[nH]ccc2c1 [Perenosin 1d],333000 M⁻¹,605 M⁻¹,1750 M⁻¹,190 M⁻¹,0.0107 mol% and 0.01073 mol%,0.00656 mol%,0.00925 mol%,
CCCCCc1cc2cc(C)cc(/N=C/c3[nH]c(C)cc3C)c2[nH]1 [Perenosin 2],1.18e+06 M⁻¹,2450 M⁻¹,2500 M⁻¹,473 M⁻¹,0.00062 mol%,0.00037 mol%,0.00085 mol%,
CCCCCc1cc2cc(C(F)(F)F)cc(/N=C/c3[nH]c(C)cc3C)c2[nH]1 [Perenosin 3],393000 M⁻¹,3440 M⁻¹,190 M⁻¹,2070 M⁻¹,0.01151 mol%,0.00879 mol%,0.04912 mol%,
CCCc1cc2cc(C)cc(/N=C/c3[nH]c(C)cc3C)c2[nH]1 [Perenosin 4],468000 M⁻¹,3440 M⁻¹,1530 M⁻¹,306 M⁻¹,0.00069 mol%,0.00038 mol%,0.00008 mol%,
CCCCCc1c(C)[nH]c(/C=N/c2cc(C)cc3cc[nH]c23)c1C [Perenosin 5],4630 M⁻¹,2610 M⁻¹,331 M⁻¹,14 M⁻¹,0.00231 mol%,0.00095 mol%,0.00273 mol%,
CCCCCc1cc2cc(C)cc(/N=C/c3[nH]c(C)c(CCCCC)c3C)c2[nH]1 [Perenosin 6],172000 M⁻¹,78300 M⁻¹,1090 M⁻¹,158 M⁻¹,0.00249 mol%,0.00211 mol%,0.00208 mol%,
CCCCCc1cc(/N=C/c2[nH]c3ccccc3c2C)c2[nH]ccc2c1 [Perenosin 7],36500 M⁻¹,157 M⁻¹,72 M⁻¹,507 M⁻¹,,,,approximately 20%
CCCCCc1cc2cc(C)cc(/N=C/c3[nH]c4ccccc4c3C)c2[nH]1 [Perenosin 8],35500 M⁻¹,142 M⁻¹,184 M⁻¹,193 M⁻¹,,,,~10%
